{"source": "paper PMC12851007", "about": "(Angewandte Chemie (International Ed. in English), 2025)", "assay": "CX4/LCG supramolecular tandem membrane assay, EYPC vesicles", "type": "in vitro ADME", "conditions": "25 µM lipid, EYPC⊃CX4/LCG-LUVs, 10 mM Hepes, pH 7.5, 25 °C; fractional activity at 590 s, Hill fit; error = SD of fit, n = 1", "experimental": "Membrane Activity M easurements\nVesicle preparation. 100 µ L of a solution of 25 mg/ml of POPC in chloroform or 200 µ L of a solution of 25 mg/ml of EYPC in chloroform was purged with nitrogen and dried overnight under hi gh vacuum. The thin lipid film was rehydrated with 1 ml reh ydrati on buffer (= inside buffer, see Tabl e S2 ) b y agitation at room temperature for 30min and then subjected to 2 0 freeze- th aw c ycles (freezing in liquid nitro gen and thawing at 40 °C). […]\nTa b l e S 2. Combinations of lipids and inside and outside buffer for CX4/LCG -LUVs.\nNo. Lipid Inside buffer = rehydration buffer Outside buffer […]\nVesicle quality control. T o ensure the absence of the CX4/ LCG reporter pair in the ex travesicular ph ase, 20 µL of the collected liposome fr action w as diluted to 2 ml with outside buffer and the fluor escen ce (λ exc = 369 nm; λ em = 502 nm) was recorded during the addition of […]\nA co nstant fluorescenc e intensity durin g the addition of the stron gl y bindin g sp ermine verified the complete removal o f unencapsulated materi al. The size distribution of the liposomes was confirmed b y DLS to be unimodal and in the range of 120 to 150 nm diameter. […] Subsequently, the time-dependent change in fluorescence intensity (λ exc = 369 nm; λ em = 502 nm) was record ed during addition of 20 µ L of peptide stock solutions of varying concentrations at 60 s. […]", "note": "Where a SMILES comes first, the peptide text is derived from it."}
{"smiles": "CC[C@H](C)[C@H](NC(=O)[C@H](CCCCN)NC(=O)[C@@H](NC(=O)[C@@H](N)CCC(N)=O)[C@@H](C)CC)C(=O)N[C@@H](Cc1c[nH]c2ccccc12)C(=O)N[C@@H](Cc1ccccc1)C(=O)N[C@@H](CCC(N)=O)C(=O)N[C@@H](CC(N)=O)C(=O)N[C@@H](CCCNC(=N)N)C(=O)N[C@@H](CCCNC(=N)N)C(=O)N[C@@H](CCSC)C(=O)N[C@@H](CCCCN)C(=O)N[C@@H](Cc1c[nH]c2ccccc12)C(=O)N[C@@H](CCCCN)C(=O)N[C@@H](CCCCN)C(=O)O", "note": "(H-QIKIWFQNRRMKWKK-OH)", "values": [{"measurement": "EC50", "result": "14 ± 3", "unit": "µM"}]}
